Data as given in US20250249110A1, “ANTIMICROBIAL PEPTIDE DERIVATIVE AND USE THEREOF” (SICHUAN UNIVERSITY, priority 2016, published 2025).
Where a SMILES comes first, the peptide text is derived from it. The star is where a group is joined. Succinyl(4-O-cholesteryl) = CC(C)CCC[C@@H](C)[C@H]1CC[C@H]2[C@@H]3CC=C4C[C@@H](OC(=O)CCC(=O)*)CC[C@]4(C)[C@H]3CC[C@]12C

Experiments:
[1] = Morphology under transmission electron microscopy; assay type: physicochemical; conditions: TEM
Procedure: As the DP7 is positively charged, the DP7-C micelle formed by self-assembly is also positively charged in aqueous solution, showing its potential as a non-viral gene transmission vector, especially siRNA transmission vector. The morphology of DP7-C micelles formed by self-assembly and DP7-C/siRNA complexes is observed under a transmission electron microscopy (H-6009IV, Hitachi, Japan). First, 1 mg\mL of micellar solution is diluted with distilled water and coated on a copper mesh, covered with nitrocellulose, then negatively stained with phosphotungstic acid, dried at room temperature and observed under an electron microscope. […] Under the electron microscope, the particle size of DP7-C micelles is about 60 nm, and the particle size of DP7-C micelle/siRNA complex is about 100 nm (see FIGS. 14A and 14B for the results).

[2] = test system: mouse PBMC; test: Immune-related cytokine expression by Q-PCR after PBMC stimulation; assay type: cell-based
Procedure: In order to determine the changes of cytokines in mouse PBMC after DP7-C stimulation, the isolated mouse PBMC is diluted to 1×10^6 cells/mL and added to a 6-well plate at 2 ml/well, in which the stimulation concentration of DP7-C is 200 μg/ml and the stimulation time is 4 h. After stimulation, the cells are collected and stored in a −80° C. refrigerator. Meanwhile, in order to verify whether DP7-C can reverse LPS-induced inflammatory reaction, an experiment is set up to stimulate PBMC together with LPS: PBMC is diluted to 1×10^6 cells/ml and added to a 6-well plate at 2 mL/well in which the stimulation concentration of DP7-C is 200 μg/mL; after 1 h, stimulated by LPS for 4 h, and cells are collected and stored in −80° C. refrigerator. After all samples are collected, the following steps are performed, including centrifugation, washing, total RNA extraction, reverse transcription and real-time quantitative PCR.

[3] = test system: splenic lymphocytes; test: Cellular immune response of splenic lymphocytes (intracellular cytokine flow cytometry); assay type: cell-based, mouse; conditions: spleen of immunized mice, OVA restimulation
From the text: […]

[4] = test system: Pseudomonas aeruginosa with fluorescence (PAO1-GFP); test: Abdominally infected zebrafish model; assay type: in vivo; conditions: DP7-C 1 mg/mL; green fluorescence at 3 h, 8 h, 18 h
Procedure: Next, we established an abdominally infected zebrafish model through Pseudomonas aeruginosa with fluorescence (PAO1-GFP) to further verify the anti-infection effect of DP7-C.
The male and female AB wild zebrafish were mated according to the mating and breeding procedures. After spawning, the roe was collected, placed in an incubator at 28° C. and incubated in the seawater containing PTU. The seawater containing PTU was changed once a day. When zebrafish was incubated for 48 h, Pseudomonas aeruginosa with fluorescence (PAO1-GFP) diluted with DP7-C and normal saline was intraperitoneally injected, and photographs were taken at 3 h, 8 h and 18 h under a fluorescence microscope to observe the growth of PAO1-GFP in the abdomen of zebrafish.

## CC[C@H](C)[C@H](NC(=O)[C@H](CCCNC(=N)N)NC(=O)[C@H](Cc1c[nH]c2ccccc12)NC(=O)[C@H](CCC(N)=O)NC(=O)[C@@H](NC(=O)CCC(=O)O[C@H]1CC[C@@]2(C)C(=CC[C@H]3[C@@H]4CC[C@H]([C@H](C)CCCC(C)C)[C@@]4(C)CC[C@@H]32)C1)C(C)C)C(=O)N[C@@H](CCCNC(=N)N)C(=O)N[C@H](C(=O)N[C@@H](C)C(=O)N[C@H](C(=O)N[C@H](C(=O)N[C@@H](CCCNC(=N)N)C(=O)N[C@@H](CCCCN)C(N)=O)[C@@H](C)CC)C(C)C)C(C)C [DP7-C, Chol-suc-VQWRIRVAVIRK-NH2] ({Succinyl(4-O-cholesteryl)}-VQWRIRVAVIRK-NH2)
[1]
  particle size under the electron microscope: about 60 nm
[2]; 200 μg/mL DP7-C together with LPS
  gene expression of IL-1β, MCP-1 and TNF-α: significantly reduced
[2]; 200 μg/ml, 4 h
  expression of IL-1, IL-6, MCP-1, M-CSF, TNF-α and other cytokines related to immune activation: greatly increased
[3]
  percentage of CD4+/IFN-γ+, CD8+/IFN-γ+ and CD4+/IL-17A+ cells: increased
[4]
  growth rate of PAO1-GFP in zebrafish abdominal cavity: much lower than that of NS group
